In PMC5923384, “Transporter gene acquisition and innovation in the evolution of Microsporidia intracellular parasites” (Nature Communications, 2018):

Experiments:
RaNTT1 = biological target: T1, RaNTT1 (Rozella allomycis, UniProt A0A075B2H2); assay: competition with […]-ATP uptake in NTT-expressing E. coli; assay type: cell-based; settings: 50,000x excess unlabelled competitor; PBS
T1 construct: gene O9G_001541; PCR-amplified gene, N-terminal His10 tag, pET16b, in E. coli Rosetta2 DE3 pLysS cells
T1 sequence (A0A075B2H2 1-597): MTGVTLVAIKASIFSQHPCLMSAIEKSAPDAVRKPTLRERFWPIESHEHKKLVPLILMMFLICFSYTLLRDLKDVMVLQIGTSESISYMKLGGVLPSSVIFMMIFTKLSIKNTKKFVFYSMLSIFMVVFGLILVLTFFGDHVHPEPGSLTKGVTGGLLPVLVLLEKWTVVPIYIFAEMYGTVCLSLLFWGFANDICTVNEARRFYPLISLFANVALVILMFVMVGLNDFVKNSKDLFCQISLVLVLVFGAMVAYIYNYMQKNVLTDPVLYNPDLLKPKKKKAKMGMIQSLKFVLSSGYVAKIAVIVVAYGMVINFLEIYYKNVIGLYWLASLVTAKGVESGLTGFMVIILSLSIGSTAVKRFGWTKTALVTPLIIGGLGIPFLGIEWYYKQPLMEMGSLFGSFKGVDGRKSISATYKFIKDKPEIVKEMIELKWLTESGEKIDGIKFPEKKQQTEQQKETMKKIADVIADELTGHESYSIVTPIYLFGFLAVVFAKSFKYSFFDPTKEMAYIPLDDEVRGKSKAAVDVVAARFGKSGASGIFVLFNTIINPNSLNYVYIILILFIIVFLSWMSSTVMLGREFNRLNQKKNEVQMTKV

AncNTTMic = settings: read-out: apparent Km; PBS; 32P-labelled ATP plus unlabelled ATP; labelled compound
AncNTTRoz/Mic = settings: read-out: apparent Km; PBS; 32P-labelled ATP plus unlabelled ATP; labelled compound
EcNTT1 = biological target: T2, EcNTT1 (Encephalitozoon cuniculi, UniProt Q8SRA2); assay: […]-nucleotide uptake by NTT-expressing E. coli, […] min; assay type: cell-based; settings: PBS; labelled compound
T2 construct: gene NTT1; full-length, N-terminal His10 tag, pET16b, in E. coli Rosetta2 DE3 pLysS cells
T2 sequence (Q8SRA2 1-559): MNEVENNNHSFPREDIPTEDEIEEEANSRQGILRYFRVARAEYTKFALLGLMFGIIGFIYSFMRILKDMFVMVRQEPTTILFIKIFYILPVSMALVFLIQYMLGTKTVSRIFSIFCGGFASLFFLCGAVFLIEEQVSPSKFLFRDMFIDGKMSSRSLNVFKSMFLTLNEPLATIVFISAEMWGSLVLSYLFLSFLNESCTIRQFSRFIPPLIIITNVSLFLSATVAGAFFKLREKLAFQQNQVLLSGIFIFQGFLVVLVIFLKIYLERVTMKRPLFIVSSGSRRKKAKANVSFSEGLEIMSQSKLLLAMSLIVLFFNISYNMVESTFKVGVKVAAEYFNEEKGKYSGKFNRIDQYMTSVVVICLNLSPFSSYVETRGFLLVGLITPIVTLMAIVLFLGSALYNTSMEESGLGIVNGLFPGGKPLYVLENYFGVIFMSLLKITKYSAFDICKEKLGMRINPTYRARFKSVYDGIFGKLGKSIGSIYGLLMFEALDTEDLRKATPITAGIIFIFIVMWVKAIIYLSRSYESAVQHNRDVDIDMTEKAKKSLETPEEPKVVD

`Nc1ncnc2c1ncn2[C@@H]1O[C@H](COP(=O)(O)OP(=O)(O)O)[C@@H](O)[C@H]1O` [ADP] was tested, and the “residual [32P]-ATP uptake” value (RaNTT1) was “transport by R. allomycis RaNTT1 was strongly reduced only by cold ATP and ADP”.

Molecule `Nc1ncnc2c1ncn2[C@@H]1O[C@H](COP(=O)(O)OP(=O)(O)OP(=O)(O)O)[C@@H](O)[C@H]1O` [ATP] has a Km (AncNTTMic) of 1.9 ± 1.35 µM and a Km (AncNTTRoz/Mic) of 0.8 ± 0.15 µM.

`Nc1nc2c(ncn2[C@@H]2O[C@H](COP(=O)(O)OP(=O)(O)OP(=O)(O)O)[C@@H](O)[C@H]2O)c(=O)[nH]1` [GTP] was tested, and the “[32P]-nucleotide uptake by NTT-expressing E. coli, 30 min” value (EcNTT1) was “GTP is transported at high levels for all of the Microsporidia NTTs”.
